Test results reported in US20260034123A1 (Cedilla Therapeutics, Inc., priority 2022, published 2026).

How the values were obtained:
Kuramochi cells RB-WT = experiment: IncuCyte Kuramochi cell proliferation assay, RB-WT; assay type: cell-based; conditions: 72 hours, cell count
Experimental: (§1) IncuCyte® assay was used to measure the effect of disclosed compounds on cell proliferation. Fluorescent microscopy images of cells were taken immediately after compound treatment and 72 hours later. Image analysis software was used to obtain cell counts as a function of compound concentration. Kuramochi cells labeled with mApple-H2B were seeded on 384-well assay-ready plates. Plates were placed in an IncuCyte® (Sartorius) and scanned at 0 and 72 hours. IncuCyte® software was used to count the number of fluorescent nuclei in each well. The fold change in cell count from 0 to 72 hours in wells treated with increasing compounds concentrations (10 pts, 1/2 log dilution, 20 µM top concentration) was normalized to DMSO control wells. The normalized cell counts were fit with dose response curves and a GI50 was calculated.

Kuramochi cells RB-KO = experiment: IncuCyte Kuramochi cell proliferation assay, RB-KO; assay type: cell-based; conditions: 72 hours, cell count, batch mean
Experimental: as §1

CDK2/Cyclin E1 = CDK2/Cyclin E1 (Homo sapiens, UniProt P24941); experiment: ADP-Glo Luminescent Kinase Assay (CDK2/E1-37C); assay type: biochemical; conditions: 0.18 nM CDK2/Cyclin E1, 100 μM ATP, Histone H1, 37° C.; read-out: ADPGLO (CDK2/E1-37C): IC50
Experimental: Inhibition of CDK2/Cyclin E1 activity by the presence of small molecules was evaluated using ADP-Glo Luminescent Kinase Assay (Promega). Activated CDK2/Cyclin E1 was incubated with its substrate Histone H1 (SignalChem H10-54N) in the kinase reaction buffer (100 μM ATP, 50 mM HEPES pH 7.5, 10 mM MgCl2, 1 mM EDTA, 2 mM DTT, 0.01% Brij35, 0.5 mg/mL BSA). Luminescence was recorded with an Envision plate reader (PerkinElmer).
Dose titrations of inhibitors in 100% DMSO were combined with 0.36 nM CDK2/Cyclin E1 in reaction buffer. The mixtures were incubated for 60 minutes at 37° C. before the addition of ATP and Histone H1 substrate to initiate the kinase reaction. The final conditions were 0.18 nM CDK2/Cyclin E1, 100 μM ATP, and […] Histone H1. The reactions were incubated at 37° C. for 90 minutes before being stopped with the addition of ADP-Glo reagent. This mixture was incubated at room temperature for 60 minutes before Kinase Detection Solution is added to generate luminescence. The stopped reactions were analyzed on an Envision plate reader. The conversion ratios were normalized to yield % activity, plotted against compound concentration, and fit to a four-parameter equation to determine the IC50 for each compound.

IC50 (CDK2/Cyclin E1) [µM]	SMILES	IC50 (Kuramochi cells RB-WT) [µM]	IC50 (Kuramochi cells RB-KO) [µM]
≤ 0.5	O=C(O)c1c(COC[C@@H]2CN(C(=O)c3cnn(Cc4ccc(Cl)cc4F)c3)CC23CN(C(=O)C2(C(F)(F)F)CC2)C3)cccc1C1CCC(C(F)(F)F)CC1 (stereo in doubt) [Compound I-71, 2-(((6-(1-(4-chloro-2-fluorobenzyl)-1H-pyrazole-4-carbonyl)-2-(1-(trifluoromethyl)cyclopropane-1-carbonyl)-2,6-diazaspiro[3.4]octan-8-yl)methoxy)methyl)-6-(4-(trifluoromethyl)cyclohexyl)benzoic acid]	> 10	> 10
≤ 0.5	O=C(O)c1ccccc1-c1c(COC[C@@H]2CN(C(=O)c3cnn(Cc4ccc(F)cc4)c3)CC23CN(C(=O)C2(C(F)(F)F)CC2)C3)cccc1C1CCC(C(F)(F)F)CC1 (stereo in doubt) [Compound I-104, 2′-(((6-(1-(4-fluorobenzyl)-1H-pyrazole-4-carbonyl)-2-(1-(trifluoromethyl)cyclopropanecarbonyl)-2,6-diazaspiro[3.4]octan-8-yl)methoxy)methyl)-6′-(4-(trifluoromethyl)cyclohexyl)-[1,1′-biphenyl]-2-carboxylic acid]	0.5 to 5	5 to 10
0.5 to 5	O=C(O)c1ccccc1Cn1cc(C(=O)N2C[C@@H](COCc3cccc(C4CCC(C(F)(F)F)CC4)c3)C3(C2)CN(C(=O)C2(C(F)(F)F)CC2)C3)cn1 (stereo in doubt) [Compound I-113, 2-((4-(8-(((3-(4-(trifluoromethyl)cyclohexyl)benzyl)oxy)methyl)-2-(1-(trifluoromethyl)cyclopropane-1-carbonyl)-2,6-diazaspiro[3.4]octane-6-carbonyl)-1H-pyrazol-1-yl)methyl)benzoic acid]	> 10	> 10
≤ 0.5	O=C(O)c1ccccc1Cn1cc(C(=O)N2C[C@@H](COCc3cccc(C4CCC(C(F)(F)F)CC4)c3F)C3(C2)CN(C(=O)C2(C(F)(F)F)CC2)C3)cn1 (stereo in doubt) [Compound I-115, 2-((4-(8-(((2-fluoro-3-(4-(trifluoromethyl)cyclohexyl)benzyl)oxy)methyl)-2-(1-(trifluoromethyl)cyclopropane-1-carbonyl)-2,6-diazaspiro[3.4]octane-6-carbonyl)-1H-pyrazol-1-yl)methyl)benzoic acid]	> 10	> 10
> 10	O=C(O)c1c(COCC2CN(c3cc(F)cc4ncsc34)CC23CN(C(=O)C2(C(F)(F)F)CC2)C3)cccc1C1CCC(C(F)(F)F)CC1 (stereo not drawn) [Compound I-61, 2-(((6-(5-fluorobenzo[d]thiazol-7-yl)-2-(1-(trifluoromethyl)cyclopropane-1-carbonyl)-2,6-diazaspiro[3.4]octan-8-yl)methoxy)methyl)-6-(4-(trifluoromethyl)cyclohexyl)benzoic acid]	> 10	–
> 10	O=C(O)C(=CC1CN(C(=O)c2cnn(Cc3ccc(C(F)(F)F)cc3)c2)CC12CN(C(=O)C1(C(F)(F)F)CC1)C2)Cc1cccc(-c2ccc(C(F)(F)F)cc2)n1 (stereo not drawn) [Compound I-62, 3-(6-(1-(4-(Trifluoromethyl)benzyl)-1H-pyrazole-4-carbonyl)-2-(1-(trifluoromethyl)cyclopropane-1-carbonyl)-2,6-diazaspiro[3.4]octan-8-yl)-2-((6-(4-(trifluoromethyl)phenyl)pyridin-2-yl)methyl)acrylic acid]	> 10	–
> 10	O=C(O)C(=CC1CN(C(=O)c2cnc(O)cn2)CC12CN(C(=O)C1(C(F)(F)F)CC1)C2)Cc1cccc(-c2ccc(C(F)(F)F)cc2)n1 (stereo not drawn) [Compound I-63, 3-(6-(5-hydroxypyrazine-2-carbonyl)-2-(1-(trifluoromethyl)cyclopropane-1-carbonyl)-2,6-diazaspiro[3.4]octan-8-yl)-2-((6-(4-(trifluoromethyl)phenyl)pyridin-2-yl)methyl)acrylic acid]	> 10	–
0.5 to 5	CS(=O)(=O)NC(=O)c1c(COC[C@@H]2CN(C(=O)c3cnn(Cc4ccc(C(F)(F)F)cc4)c3)CC23CN(C(=O)C2(C(F)(F)F)CC2)C3)cccc1C1CCC(C(F)(F)F)CC1 (stereo partly drawn) [Compound I-68]	> 10	> 10
≤ 0.5	O=C(c1cnn(Cc2ccc(C(F)(F)F)cc2)c1)N1C[C@@H](COCc2cccc(C3CCC(C(F)(F)F)CC3)c2-c2nn[nH]n2)C2(C1)CN(C(=O)C1(C(F)(F)F)CC1)C2 (stereo partly drawn) [Compound I-69]	> 10	> 10
0.5 to 5	O=C(O)c1c(COC[C@@H]2CN(C(=O)c3cnn(Cc4ccc(C(F)(F)F)cc4)c3)CC23CN(C(=O)C2(C(F)(F)F)CC2)C3)cccc1N1CCC(C(F)(F)F)CC1 [Compound I-72]	> 10	> 10
0.5 to 5	O=C(O)c1c(COC[C@@H]2CN(C(=O)c3c[nH]nc3Cc3ccccc3)CC23CN(C(=O)C2(C(F)(F)F)CC2)C3)cccc1C1CCC(C(F)(F)F)CC1 (stereo partly drawn) [Compound I-73]	> 10	> 10
≤ 0.5	O=C(O)c1c(COC[C@@H]2CN(C(=O)c3cnn(Cc4ccc(F)cc4C(F)(F)F)c3)CC23CN(C(=O)C2(C(F)(F)F)CC2)C3)cccc1C1CCC(C(F)(F)F)CC1 (stereo partly drawn) [Compound I-76]	5 to 10	> 10
0.5 to 5	C[C@@H](c1ccc(F)cc1)n1cc(C(=O)N2CC(COCc3cccc(C4CCC(C(F)(F)F)CC4)c3C(=O)O)C3(C2)CN(C(=O)C2(C(F)(F)F)CC2)C3)cn1 (stereo partly drawn) [Compound I-77]	> 10	> 10
0.5 to 5	C[C@H](c1ccc(F)cc1)n1cc(C(=O)N2CC(COCc3cccc(C4CCC(C(F)(F)F)CC4)c3C(=O)O)C3(C2)CN(C(=O)C2(C(F)(F)F)CC2)C3)cn1 (stereo partly drawn) [Compound I-78]	> 10	> 10
≤ 0.5	CC1(C)C[C@@H]1C(=O)N1CC2(CN(C(=O)c3cnn(Cc4ccc(F)cc4)c3)CC2COCc2cccc(C3CCC(C(F)(F)F)CC3)c2C(=O)NS(C)(=O)=O)C1 (stereo partly drawn) [Compound I-86, 2-(((2-((S)-2,2-dimethylcyclopropane-1-carbonyl)-6-(1-(4-fluorobenzyl)-1H-pyrazole-4-carbonyl)-2,6-diazaspiro[3.4]octan-8-yl)methoxy)methyl)-N-(methylsulfonyl)-6-(4-(trifluoromethyl)cyclohexyl)benzamide]	0.5 to 5	0.5 to 5
≤ 0.5	CC1(C)C[C@@H]1C(=O)N1CC2(CN(C(=O)c3cnn(Cc4ccc(F)cc4)c3)CC2COCc2cccc(C3CCC4(CCC4)CC3)c2C(=O)O)C1 (stereo partly drawn) [Compound I-88, 2-(((2-((S)-2,2-dimethylcyclopropane-1-carbonyl)-6-(1-(4-fluorobenzyl)-1H-pyrazole-4-carbonyl)-2,6-diazaspiro[3.4]octan-8-yl)methoxy)methyl)-6-(spiro[3.5]nonan-7-yl)benzoic acid]	0.5 to 5	> 10
0.5 to 5	CC1(C(=O)N2CC3(CN(C(=O)c4cnn(Cc5ccc(F)cc5)c4)C[C@H]3COCc3cccc(C4CCC(C(F)(F)F)CC4)c3C(=O)O)C2)CCO1 (stereo partly drawn) [Compound I-93, 2-((((8S)-6-(1-(4-fluorobenzyl)-1H-pyrazole-4-carbonyl)-2-(2-methyloxetane-2-carbonyl)-2,6-diazaspiro[3.4]octan-8-yl)methoxy)methyl)-6-(4-(trifluoromethyl)cyclohexyl)benzoic acid]	> 10	> 10
≤ 0.5	CC(C)(C(=O)N1CC2(CN(C(=O)c3cnn(Cc4ccc(F)cc4)c3)C[C@H]2COCc2cccc(C3CCC(C(F)(F)F)CC3)c2C(=O)O)C1)C(F)(F)F (stereo partly drawn) [Compound I-94, (S)-2-(((6-(1-(4-fluorobenzyl)-1H-pyrazole-4-carbonyl)-2-(3,3,3-trifluoro-2,2-dimethylpropanoyl)-2,6-diazaspiro[3.4]octan-8-yl)methoxy)methyl)-6-(4-(trifluoromethyl)cyclohexyl)benzoic acid]	0.5 to 5	> 10
≤ 0.5	O=C(O)c1c(COC[C@@H]2CN(C(=O)c3cnn(Cc4ccc(F)cc4)c3)CC23CN(C(=O)C2(C(F)(F)F)CCC2)C3)cccc1C1CCC(C(F)(F)F)CC1 (stereo partly drawn) [Compound I-95, (S)-2-(((6-(1-(4-fluorobenzyl)-1H-pyrazole-4-carbonyl)-2-(1-(trifluoromethyl)cyclobutanecarbonyl)-2,6-diazaspiro[3.4]octan-8-yl)methoxy)methyl)-6-(4-(trifluoromethyl)cyclohexyl)benzoic acid]	0.5 to 5	> 10
0.5 to 5	O=C(O)c1c(COC[C@@H]2CN(C(=O)c3cnn(Cc4ccc(F)cc4)c3)CC23CN(C(=O)C2CCO2)C3)cccc1C1CCC(C(F)(F)F)CC1 (stereo partly drawn) [Compound I-96]	> 10	> 10
